Measurements reported in patent publication US11674962B2, “Therapeutic and diagnostic methods for cancer” (Genentech, Inc., priority 2017, dated 2023).

What was measured:
[1] = system: locally advanced or metastatic non-small cell lung cancer (NSCLC); experiment: OAK phase III clinical trial (NCT02008227): atezolizumab vs docetaxel, outcomes by bTMB score and PD-L1 IHC; type: in vivo, human
Method: A blood-based assay was used to evaluate the association between clinical response to treatment with atezolizumab (MPDL3280A) and blood tumor mutational burden (bTMB) score in patients with non-small cell lung cancer (NSCLC) enrolled in two clinical trials, a phase II clinical trial, POPLAR (Clinical Trial ID No.: NCT01903993), and a phase III clinical trial, OAK (Clinical Trial ID No.: NCT02008227), in which atezolizumab was administered as a monotherapy.
Pre-treatment blood samples from patients with NSCLC who were enrolled in the POPLAR and/or the OAK studies, in which atezolizumab was administered as a monotherapy, were evaluated for bTMB score and/or maximum somatic allele frequency (MSAF).
The OAK (Clinical Trial ID No.: NCT02008227) patient population evaluated for bTMB score consisted of 583 patients. Patients were eligible for enrollment in the OAK study if they had locally advanced or metastatic (e.g., stage IIIB, stage IV, or recurrent) NSCLC; disease progression during or following treatment with a prior platinum-containing regimen for locally advanced, unresectable/inoperable, or metastatic NSCLC, or disease recurrence within 6 months of treatment with a platinum-based adjuvant/neoadjuvant regimen; measurable disease, as defined by RECIST v1.1; and an ECOG performance status of 0 or 1. Participants were randomized to receive either atezolizumab at a dose of 1200 mg intravenously every three weeks or docetaxel 75 mg per square meter (mg/m^2) intravenously every three weeks. Treatment with atezolizumab could be continued as long as participants were experiencing clinical benefit, i.e., in the absence of unacceptable toxicity or symptomatic deterioration attributed to disease progression.
Analysis of bTMB was performed retrospectively. Progression-free survival (PFS) was defined as the time between date of randomization and date of first documented disease progression as assessed by the investigator using RECIST v.1.1 or death from any cause, whichever occurred first. Overall survival (OS) was defined as the time between the date of randomization until death due to any cause. Treatment arms were compared for OS and PFS individually using a univariate Cox regression model without stratification in the biomarker evaluable-population (BEP) and their subgroups or using a stratified (by randomization stratification factors) Cox model in the ITT population. No multiplicity correction was applied to p-values or confidence intervals (CI). Kaplan-Meier methodology was used to estimate median OS and PFS and construct survival curves.
In the OAK ITT population (N=850), 797 samples were available for analysis. Of these samples, 13 were removed for sample contamination >1%; 42 were removed for median exon coverage <800×; and 100 were removed for low MSAF<1%.
The OAK BEP (N=642) included 59 patients with EGFR mutation or ALK rearrangement, and 583 without known alterations.
To identify somatic mutations and calculate a bTMB score, whole blood samples obtained from each patient (collected in EDTA or Streck tubes) were processed through a series of spins to isolate plasma, from which cell free DNA (cfDNA) was extracted for sequencing analysis. Specifically, at least 20 ng purified cfDNA was used for library construction. Next-generation sequencing libraries using fragment barcodes and hybrid capture were constructed to analyze and sequence a pre-determined set of 394 genes that covered approximately 1.125 Mb of the exome. Specifically, purified libraries were hybrid captured using a 394-gene bait set and then further purified, pooled and loaded on an ILLUMINA® HISEQ® 4000 sequencing system. Sequenced libraries were aligned and sorted. In order to accurately call variants at low allele frequencies and minimize artifacts from sequencing, PCR, or DNA damage-related errors, sequenced libraries were processed by a cfDNA computational pipeline that corrected errors via the use of fragment barcodes. […]

[2] = system: non-small cell lung cancer (NSCLC); experiment: Combined POPLAR and OAK studies: PFS by bTMB score; type: in vivo, human; settings: combined BEP of POPLAR and OAK (n=775), reference bTMB score of 14, atezolizumab vs docetaxel
Source text: FIG. 7A is a graph showing the Kaplan-Meier Curve of PFS of the combined BEP of patients (nBEP=775 patients; HR=0.62) in the atezolizumab treatment arm (black) and docetaxel control arm (gray) of the POPLAR and OAK studies, each arm stratified according to bTMB score. Patients with a bTMB score that is greater than, or equal to, a reference bTMB score of 14 are indicated by solid lines (Dx+) and patients with a bTMB that is lower than a reference bTMB score of 14 are indicated by dashed lines (Dx−). […] The time point for each column corresponds to the times shown along the x-axis of the above graph. Patient samples having an MSAF less than 1% were excluded from analysis. Sequence coverage was greater than, or equal to, 800. […]
Analysis of bTMB was performed retrospectively. Progression-free survival (PFS) was defined as the time between date of randomization and date of first documented disease progression as assessed by the investigator using RECIST v.1.1 or death from any cause, whichever occurred first. […]

[3] = OAK BEP with valid bTMB and PD-L1 IHC results, bTMB ≥16, n=156
[4] = OAK, bTMB score subgroup ≥10 (251 patients), atezolizumab vs docetaxel
[5] = OAK, bTMB score subgroup ≥16 (158 patients), atezolizumab vs docetaxel
[6] = OAK, bTMB score subgroup ≥20 (105 patients), atezolizumab vs docetaxel

Question: With atezolizumab as the substance, how does the “OS HR (95% CI)” value ([1]; OAK BEP with valid bTMB and PD-L1 IHC results, TC3 or IC3, n=103) read?
Answer: 0.44 (0.27-0.71)

Question: And the “OS HR (95% CI)” value [1, 3]?
Answer: 0.64 (0.44-0.93)

Question: What about the “PFS HR (95% CI)” value [1, 3] of the same substance?
Answer: 0.64 (0.46, 0.91)

Question: What about the “OS HR (95% CI)” value ([1]; OAK, BEP (n = 583), atezolizumab vs docetaxel) of the same substance?
Answer: 0.64

Question: What about the “PFS HR (95% CI)” value ([1]; OAK, IHC− (complementary to TC1/2/3) and bTMB ≥16, n=93) of the same substance?
Answer: 0.78

Question: What about the “PFS HR (95% CI)” value ([1]; OAK, IHC− (complementary to TC1/2/3 or IC1/2/3) and bTMB ≥16, n=53) of the same substance?
Answer: 0.68

Question: What about the “PFS HR (95% CI)” value ([1]; OAK, IHC− (complementary to TC2/3) and bTMB ≥16, n=110) of the same substance?
Answer: 0.69

Question: And the “PFS HR (95% CI)” value ([1]; OAK, IHC− (complementary to TC2/3 or IC2/3) and bTMB ≥16, n=94)?
Answer: 0.65

Question: And the “PFS HR (95% CI)” value ([1]; OAK, IHC− (complementary to TC3 or IC3) and bTMB ≥16, n=126)?
Answer: 0.70

Question: What about the “OS HR (95% CI)” value ([1]; OAK, ITT (n = 850), atezolizumab vs docetaxel) of the same substance?
Answer: 0.73

Question: And the “PFS HR (95% CI)” value ([1]; OAK, PD-L1 IHC TC0 and IC0 (bTMB evaluable), n=250)?
Answer: 0.95

Question: And the “PFS HR (95% CI)” value ([1]; OAK, PD-L1 IHC TC1/2/3, IHC+ (bTMB evaluable), n=192)?
Answer: 0.65

Question: And the “PFS HR (95% CI)” value ([1]; OAK, PD-L1 IHC TC1/2/3 or IC1/2/3, IHC+ (bTMB evaluable), n=328)?
Answer: 0.83

Question: What about the “PFS HR (95% CI)” value ([1]; OAK, PD-L1 IHC TC2/3, IHC+ (bTMB evaluable), n=150) of the same substance?
Answer: 0.65

Question: What about the “PFS HR (95% CI)” value ([1]; OAK, PD-L1 IHC TC2/3 or IC2/3, IHC+ (bTMB evaluable), n=200) of the same substance?
Answer: 0.71

Question: And the “PFS HR (95% CI)” value ([1]; OAK, TC0 and IC0 and bTMB <16, n=197)?
Answer: 1.03

Question: And the “PFS HR (95% CI)” value ([1]; OAK, TC0 and IC0 and bTMB ≥16, n=53)?
Answer: 0.68

Question: What about the “PFS HR (95% CI)” value ([1]; OAK, TC1/2/3 and bTMB <16, n=129) of the same substance?
Answer: 0.72

Question: What about the “PFS HR (95% CI)” value ([1]; OAK, TC1/2/3 and bTMB ≥16, n=63) of the same substance?
Answer: 0.55

Question: What about the “PFS HR (95% CI)” value ([1]; OAK, TC1/2/3 or IC1/2/3 and bTMB <16, n=225) of the same substance?
Answer: 0.94

Question: What about the “PFS HR (95% CI)” value ([1]; OAK, TC1/2/3 or IC1/2/3 and bTMB ≥16, n=103) of the same substance?
Answer: 0.65

Question: What about the “PFS HR (95% CI)” value ([1]; OAK, TC2/3 and bTMB <16, n=106) of the same substance?
Answer: 0.70

Question: What about the “PFS HR (95% CI)” value ([1]; OAK, TC2/3 and bTMB ≥16, n=44) of the same substance?
Answer: 0.55

Question: And the “PFS HR (95% CI)” value ([1]; OAK, TC2/3 or IC2/3 and bTMB <16, n=140)?
Answer: 0.73

Question: What about the “PFS HR (95% CI)” value ([1]; OAK, TC2/3 or IC2/3 and bTMB ≥16, n=60) of the same substance?
Answer: 0.65

Question: And the “PFS HR (95% CI)” value ([1]; OAK, TC3 or IC3 and bTMB <16, n=73)?
Answer: 0.71

Question: And the “OS HR” value [1, 4]?
Answer: 0.69

Question: And the “PFS HR” value [1, 4]?
Answer: 0.73

Question: What about the “OS HR” value [1, 5] of the same substance?
Answer: 0.64

Question: And the “PFS HR” value [1, 5]?
Answer: 0.65

Question: And the “OS HR” value [1, 6]?
Answer: 0.65

Question: What about the “PFS HR” value [1, 6] of the same substance?
Answer: 0.61

Question: What about the “median OS” value ([1]; OAK, bTMB≥16, per treatment arm) of the same substance?
Answer: 13.5 months

Question: What about the “best overall response rate” value ([1]; OAK, bTMB≥16 patients, per treatment arm) of the same substance?
Answer: 21%

Question: And the “PFS HR” value ([1]; OAK, reference bTMB score of 14 (Dx+, n=188), atezolizumab vs docetaxel)?
Answer: 0.68

Question: And the “PFS HR” value ([1]; OAK, reference bTMB score of 18 (Dx+, n=132), atezolizumab vs docetaxel)?
Answer: 0.66

Question: What about the “PFS HR” value [2] of the same substance?
Answer: 0.62
